Experimental data as given in PubChem BioAssay (NCI).
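Where inhibition never reached the appropriate level, the endpoint shown equals the highest concentration tested. Otherwise, values were interpolated linearly from a five-concentration, 48-hour dose response in 96-well plates. GI50 = concentration required for 50% inhibition of growth. TGI: concentration producing complete growth inhibition.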

Legend:
Assay in all cases: growth of human tumour cells (NCI), 48 h
[1] = system: HL-60(TB) leukemia
[2] = system: NCI-H460 lung
[3] = system: OVCAR-8 ovarian
[4] = system: SF-268 CNS
[5] = system: 786-0 renal
[6] = system: M14 melanoma
[7] = system: NCI/ADR-RES ovarian
[8] = system: COLO 205 colon
[9] = system: NCI-H226 lung
[10] = system: MOLT-4 leukemia
[11] = system: HOP-62 NSCLC
[12] = system: OVCAR-3 ovarian
[13] = system: MALME-3M melanoma
[14] = system: MCF7 breast
[15] = system: CAKI-1 renal
[16] = system: BT-549 breast
[17] = system: SK-OV-3 ovarian
[18] = system: LOX IMVI melanoma
[19] = system: RXF 393 renal
[20] = system: SF-539 CNS
[21] = system: U251 CNS
[22] = system: A498 renal
[23] = system: SK-MEL-2 melanoma
[24] = system: HCC-2998 colon
[25] = system: SK-MEL-5 melanoma
[26] = system: NCI-H522 lung
[27] = system: PC-3 prostate
[28] = system: HCT-15 colon
[29] = system: MDA-MB-231 breast
[30] = system: ACHN renal
[31] = system: CCRF-CEM leukemia
[32] = system: UACC-62 melanoma
[33] = system: OVCAR-5 ovarian
[34] = system: SK-MEL-28 melanoma
[35] = system: OVCAR-4 ovarian
[36] = system: K-562 leukemia
[37] = system: UO-31 renal
[38] = system: KM12 colon
[39] = system: SNB-19 CNS
[40] = system: SN12C renal
[41] = system: DU-145 prostate
[42] = system: EKVX NSCLC
[43] = system: HS 578T breast
[44] = system: RPMI-8226 leukemia
[45] = system: HOP-92 NSCLC
[46] = system: SR leukemia
[47] = system: SW-620 colon
[48] = system: SF-295 CNS
[49] = system: HCT-116 colon
[50] = system: MDA-MB-435
[51] = system: SNB-75 CNS
[52] = system: A549 NSCLC
[53] = system: UACC-257 melanoma
[54] = system: TK-10 renal
[55] = system: IGROV1 ovarian
[56] = system: T-47D breast
[57] = system: HT29 colon

C#C[C@]1(O)CC[C@H]2[C@@H]3CC=C4c5sc(Nc6ccc(Cl)cn6)nc5CC[C@]4(C)[C@H]3CC[C@@]21C
GI50 [1]: 3.5 µM
TGI [1]: > 100 µM
GI50 [2]: 3.95 µM
TGI [2]: > 100 µM
GI50 [3]: 6.32 µM
TGI [3]: > 100 µM
GI50 [4]: 4.35 µM
TGI [4]: > 100 µM
GI50 [5]: 1.56 µM
TGI [5]: 3.42 µM
GI50 [6]: 3.12 µM
TGI [6]: > 100 µM
GI50 [7]: 15.9 µM
TGI [7]: > 100 µM
GI50 [8]: 23.5 µM
TGI [8]: > 100 µM
GI50 [9]: 7.41 µM
TGI [9]: > 100 µM
GI50 [10]: 2.79 µM
TGI [10]: > 100 µM
GI50 [11]: 3.31 µM
TGI [11]: > 100 µM
GI50 [12]: 7.66 µM
TGI [12]: > 100 µM
GI50 [13]: 8.97 µM
TGI [13]: > 100 µM
GI50 [14]: 1.8 µM
TGI [14]: 4.47 µM
GI50 [15]: 3.48 µM
TGI [15]: > 100 µM
GI50 [16]: 2.88 µM
TGI [16]: 25.2 µM
GI50 [17]: 3.44 µM
TGI [17]: 13.4 µM
GI50 [18]: 2.1 µM
TGI [18]: 4.33 µM
GI50 [19]: 0.642 µM
TGI [19]: 2.25 µM
GI50 [20]: 1.62 µM
TGI [20]: 4.03 µM
GI50 [21]: 2.66 µM
TGI [21]: > 100 µM
GI50 [22]: 2.15 µM
TGI [22]: 4.75 µM
GI50 [23]: 3.83 µM
TGI [23]: > 100 µM
GI50 [24]: 66.8 µM
TGI [24]: > 100 µM
GI50 [25]: 79.5 µM
TGI [25]: > 100 µM
GI50 [26]: 10.5 µM
TGI [26]: > 100 µM
GI50 [27]: 1.68 µM
TGI [27]: 6.91 µM
GI50 [28]: 3.03 µM
TGI [28]: > 100 µM
GI50 [29]: 3.34 µM
TGI [29]: > 100 µM
GI50 [30]: 5.07 µM
TGI [30]: > 100 µM
GI50 [31]: 0.0721 µM
TGI [31]: > 100 µM
GI50 [32]: 3.23 µM
TGI [32]: > 100 µM
GI50 [33]: 24.1 µM
TGI [33]: > 100 µM
GI50 [34]: 1.72 µM
TGI [34]: 3.68 µM
GI50 [35]: 7.73 µM
TGI [35]: > 100 µM
GI50 [36]: 3.34 µM
TGI [36]: > 100 µM
GI50 [37]: 2.96 µM
TGI [37]: > 100 µM
GI50 [38]: 4.04 µM
TGI [38]: > 100 µM
GI50 [39]: 4.95 µM
TGI [39]: > 100 µM
GI50 [40]: > 100 µM
TGI [40]: > 100 µM
GI50 [41]: > 100 µM
TGI [41]: > 100 µM
GI50 [42]: 3.51 µM
TGI [42]: > 100 µM
GI50 [43]: 2.17 µM
TGI [43]: 6.53 µM
GI50 [44]: 1.03 µM
TGI [44]: 4.18 µM
GI50 [45]: 3.45 µM
TGI [45]: 73.4 µM
GI50 [46]: 3.08 µM
TGI [46]: > 100 µM
GI50 [47]: 4.77 µM
TGI [47]: > 100 µM
GI50 [48]: 1.82 µM
TGI [48]: 3.75 µM
GI50 [49]: 3.47 µM
TGI [49]: > 100 µM
GI50 [50]: 3.73 µM
TGI [50]: > 100 µM
GI50 [51]: 4.07 µM
TGI [51]: > 100 µM
GI50 [52]: 6.4 µM
TGI [52]: > 100 µM
GI50 [53]: 2.49 µM
TGI [53]: 6.65 µM
GI50 [54]: > 100 µM
TGI [54]: > 100 µM
GI50 [55]: 9.14 µM
TGI [55]: > 100 µM
GI50 [56]: 61.2 µM
TGI [56]: > 100 µM
GI50 [57]: 6.83 µM
TGI [57]: > 100 µM
